Assay results taken from patent publication US20150105433A1, “TREATING VIRAL INFECTIONS HAVING VIRAL RNAs TRANSLATED BY A NON-IRES MEDIATED MECHANISM” (THE UAB RESEARCH FOUNDATION, priority 2012, published 2015).

Legend:
[1] = tested on: HCV (JFH1, genotype 2a); test: HCV amplification in RPS25 knockdown Huh7.13 cells, quantitative western analysis for NS5A; assay type: cell-based, hepatitis C virus; settings: Huh7.13 cells infected with HCV at low MOI, 72 hours after infection, versus non-targeting control siRNA
Protocol: (§1) The day before transfection, 5×10^4 HeLa cells were seeded into 24-well plates. Once the cells reached 90% confluency, transfection of dual luciferase reporters was done using Lipofectamine 2000 (Invitrogen) according to the manufacturer's recommendations using 0.4 μg DNA per well. Cells were harvested for luciferase analysis after 24 hours. Double stranded RPS25 siRNAs, 5′-GGACUUAUCAAACUGGUUUtt-3′ (SEQ ID NO:3) and 5′-AAACCAGUUUGAUAAGUCCtt-3′ (SEQ ID NO:4) (Ambion, siRNA ID #142220), were used to knock down RPS25 in Huh7 cells. The Dicector™ DS (IDT; Coralville, Iowa) scrambled negative control duplex was used as a negative control. siRNA complexes were prepared in opti-MEM (Invitrogen) with 5 μl siPORT NeoFX transfection agent to a final siRNA concentration of 0.375 μM according to the manufacturer's specifications. siRNA complexes were plated and overlaid with 2×10^5 Huh7.13 cells in antibiotic-free media. The transfection media was replaced with complete media after 24 hours.
The HCV infection was carried out by inoculating Huh7.13 cells with 1 ml of culture medium from the HCV producer cell line Huh7 JFH1 HCV (genotype 2a). […]
Cells were lysed in E1 lysis buffer with 0.1% SDS. […] Signals were detected using flororchrome-conjugated secondary antibody for quantitative western blotting using the Odyssey scanner and software (LI-COR; Lincoln, Nebr.).

[2] = tested on: RPS25 mRNA; test: RPS25 siRNA knockdown, northern analysis of RPS25 mRNA level; assay type: cell-based, human; settings: Huh7.13 cells, transient siRNA transfection, 72 hours, RPS25 mRNA normalized to β-actin mRNA, relative to control
Protocol: as §1
Total RNA was harvested with TRIzol (Invitrogen) according to the manufacturer's protocol from shRNA lentiviral transduced cells. […]

“siRNA that targets RPS25: Double stranded RPS25 siRNAs 5′-GGACUUAUCAAACUGGUUUtt-3′ (SEQ ID NO:3) and 5′-AAACCAGUUUGAUAAGUCCtt-3′ (SEQ ID NO:4), Ambion (chain 1 GGACUUAUCAAACUGGUUUTT; chain 2 AAACCAGUUUGAUAAGUCCTT; chemistry not given here)” was tested, and the “HCV NS5A protein expression (HCV amplification)” value [1] was “not detected” and the “RPS25 knockdown effectiveness (RPS25 mRNA level)” value [2] was “over 95%”.
